Consider 26 compounds from patent US20230115176A1 (Ra Pharmaceuticals, Inc., priority 2019, published 2023).

pIC50: −log10 of the molar value.

As usually defined, the pIC50 is the IC50 on a negative log10 scale, so that one unit is a factor of ten. High values mean a small IC50, low ones a large IC50.

In this assay the target is T1, Human C5 (Homo sapiens, UniProt P01031).
T1 construct: purchased Complement Technology
T1 sequence (P01031 19-1676): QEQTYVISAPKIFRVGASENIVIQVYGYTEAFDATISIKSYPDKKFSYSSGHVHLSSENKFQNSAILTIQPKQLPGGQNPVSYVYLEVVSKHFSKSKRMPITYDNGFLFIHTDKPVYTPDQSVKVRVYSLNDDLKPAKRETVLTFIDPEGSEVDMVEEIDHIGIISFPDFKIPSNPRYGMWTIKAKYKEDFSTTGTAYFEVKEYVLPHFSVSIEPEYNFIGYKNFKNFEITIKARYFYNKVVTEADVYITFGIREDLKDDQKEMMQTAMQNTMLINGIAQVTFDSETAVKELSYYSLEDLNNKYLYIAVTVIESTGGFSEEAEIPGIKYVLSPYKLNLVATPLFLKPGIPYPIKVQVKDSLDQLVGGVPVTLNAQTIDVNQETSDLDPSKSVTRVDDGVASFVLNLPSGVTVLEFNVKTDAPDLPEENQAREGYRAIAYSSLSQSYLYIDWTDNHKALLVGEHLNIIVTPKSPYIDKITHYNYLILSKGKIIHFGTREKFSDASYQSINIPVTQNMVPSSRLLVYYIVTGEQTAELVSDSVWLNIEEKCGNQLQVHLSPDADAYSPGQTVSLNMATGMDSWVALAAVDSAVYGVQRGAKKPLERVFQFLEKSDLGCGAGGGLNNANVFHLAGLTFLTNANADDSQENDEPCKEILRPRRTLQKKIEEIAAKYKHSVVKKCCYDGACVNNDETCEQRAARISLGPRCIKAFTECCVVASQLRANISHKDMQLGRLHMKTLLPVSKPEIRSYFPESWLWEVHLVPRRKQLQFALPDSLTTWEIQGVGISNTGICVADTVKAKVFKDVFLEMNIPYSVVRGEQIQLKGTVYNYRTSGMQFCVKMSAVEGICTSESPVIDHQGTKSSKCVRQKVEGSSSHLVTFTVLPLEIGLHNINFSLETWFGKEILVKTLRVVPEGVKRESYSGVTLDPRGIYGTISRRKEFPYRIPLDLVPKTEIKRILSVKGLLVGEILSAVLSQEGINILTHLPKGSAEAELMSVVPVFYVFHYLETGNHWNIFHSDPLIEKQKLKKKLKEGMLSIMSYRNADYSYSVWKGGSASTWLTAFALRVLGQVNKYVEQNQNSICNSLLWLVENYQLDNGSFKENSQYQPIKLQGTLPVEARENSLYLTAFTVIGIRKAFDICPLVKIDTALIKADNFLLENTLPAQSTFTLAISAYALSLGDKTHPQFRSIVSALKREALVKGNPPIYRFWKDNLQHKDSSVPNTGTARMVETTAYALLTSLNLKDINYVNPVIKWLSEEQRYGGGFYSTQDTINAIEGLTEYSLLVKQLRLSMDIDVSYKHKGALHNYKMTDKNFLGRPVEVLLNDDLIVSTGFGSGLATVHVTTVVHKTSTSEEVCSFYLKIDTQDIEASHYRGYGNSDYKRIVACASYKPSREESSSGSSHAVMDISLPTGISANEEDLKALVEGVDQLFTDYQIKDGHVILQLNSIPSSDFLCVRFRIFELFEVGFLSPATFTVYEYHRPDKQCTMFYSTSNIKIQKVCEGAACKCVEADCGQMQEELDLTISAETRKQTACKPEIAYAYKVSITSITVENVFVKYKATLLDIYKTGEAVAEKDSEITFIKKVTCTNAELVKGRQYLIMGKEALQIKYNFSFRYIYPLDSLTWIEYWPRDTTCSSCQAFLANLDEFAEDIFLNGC
Nature of the assay: Red blood cell (RBC) hemolysis assay, luminescent (Example 28, Table 32). Type of assay: cell-based. To be noted: sheep EA cells, 1.5% C5-depleted human serum, 0.5 nM human C5, 1 hour at 37° C., luminescence (Table 32).
On to `CCCCCOc1cc(N2CC[C@H](C)N(Cc3ccnc4c3c(Cl)cn4CCOCCOC)C2=O)ccc1OC` [SC0150], for which the pIC50 was 8.66.

`CCCCCOc1cc(N2CC[C@H](C)N(Cc3ccnc4c3c(Cl)cn4C3COC3)C2=O)ccc1OC` [SC0151]: the pIC50 is 8.66.

For `COc1cc(CC(=O)N[C@H]2CNC[C@H]2F)ccc1CN1C(=O)N(c2ccc(OC)c(OCCCC3CC3)c2)CC[C@@H]1C` [SC0152], the pIC50 is 8.64.

`CCCCCOc1cc(N2CC[C@H](C)N(Cc3ccc(CC(=O)N4CCOC(CN(C)C)C4)cc3OC)C2=O)ccc1OC` (some centres unmarked) [SC0153]: the pIC50 is 8.64.

Turning to `COc1cc(Cc2ncccn2)ccc1CN1C(=O)N(c2ccc(OC)c(OCCCC3CC3)c2)CC[C@@H]1C` [SC0157], the pIC50 was 8.59. The pIC50 values of the last two compounds are within 0.2 log units of each other.

For the compound `COc1cc(CC(=O)N[C@H]2CN(C(=O)OC(C)(C)C)C[C@H]2F)ccc1CN1C(=O)N(c2ccc(OC)c(OCCCC3CC3)c2)CC[C@@H]1C` [SC0160], the pIC50 was 8.57.

With `COc1cc(CC(=O)N(C)[C@H]2CCNC2)ccc1CN1C(=O)N(c2ccc(OC)c(OCCCC3CC3)c2)CC[C@@H]1C` [SC0161], the pIC50 is 8.55.

In turn, `COc1cc(CC(=O)N(C)[C@H]2CCN(CCF)C2)ccc1CN1C(=O)N(c2ccc(OC)c(OCCCC3CC3)c2)CC[C@@H]1C` [SC0165] gave a pIC50 of 8.52. This pIC50 and that of the compound before are within 0.2 log units of each other.

The compound `COc1cc(CC(=O)N[C@@H]2CCNC2)ccc1CN1C(=O)N(c2ccc(OC)c(OCCCC3CC3)c2)CC[C@@H]1C` [SC0166] showed a pIC50 of 8.51. This pIC50 and that of the compound before are within 0.2 log units of each other.

For the compound `CCCCCOc1cc(N2CC[C@H](C)N(Cc3ccc(CC(=O)N(C)C)cc3OC)C2=O)ccc1OC` [SC0173], the pIC50 was 8.38.

For `CCCCCOc1cc(N2CC[C@H](C)N(Cc3ccnc4c3c(Cl)cn4CC(=O)N(C)C)C2=O)c(F)cc1OC` [SC0175], the negative logarithm of the IC50 (pIC50) was 8.36.

`CCCCCOc1cc(N2C[C@H](CO)CN(Cc3ccc(CC(=O)N(C)C)cc3OC)C2=O)ccc1OC` [SC0176] showed a pIC50 of 8.35. The pIC50 values of the last two compounds are within 0.2 log units of each other.

`COc1cc(CCO)ccc1CN1C(=O)N(c2ccc(OC)c(OCCCC3CC3)c2)CC[C@@H]1C` [SC0180]: the negative logarithm of the IC50 (pIC50) is 8.31. This pIC50 and that of the compound before are within 0.2 log units of each other.

The compound `CCCCCOc1cc(N2CC[C@H](C)N(Cc3cccc4c3c(Cl)c(Cl)n4CC(=O)N(C)C)C2=O)ccc1OC` [SC0181] had a pIC50 of 8.29.

For `COc1cc(CCN2CCOCC2)ccc1CN1C(=O)N(c2ccc(OC)c(OCCCC3CC3)c2)CC[C@@H]1C` [SC0182], the pIC50 was 8.28.

`COc1cc(CC(=O)N[C@@H]2CN(C(=O)OC(C)(C)C)C[C@@H]2F)ccc1CN1C(=O)N(c2ccc(OC)c(OCCCC3CC3)c2)CC[C@@H]1C` [SC0185]: the pIC50 was 8.24.

In turn, `COc1cc(CC(=O)N[C@@H]2CCN(C(=O)OC(C)(C)C)C2)ccc1CN1C(=O)N(c2ccc(OC)c(OCCCC3CC3)c2)CC[C@@H]1C` [SC0187] showed a pIC50 of 8.21.

As for `COc1cc(CC(=O)N(C)[C@H]2CCN(C(=O)OC(C)(C)C)C2)ccc1CN1C(=O)N(c2ccc(OC)c(OCCCC3CC3)c2)CC[C@@H]1C` [SC0188], the pIC50 was 8.19.

`CCCCCOc1cc(N2CC(CO)CN(Cc3ccc(CNC(C)=O)cc3OC)C2=O)ccc1OC` (centres unmarked) [SC0189] had a pIC50 of 8.15.

Take `COc1cc(CC(=O)N2CCCC2)ccc1CN1CC(C)CN(c2ccc(OC)c(OCCCC3CC3)c2)C1=O` (centres unmarked) [SC0191]: the pIC50 is 8.14.

`COc1cc(CC(=O)O)ccc1CN1C(=O)N(c2ccc(OC)c(OCCCC3CC3)c2)CC[C@@H]1C` [SC0192] gave a pIC50 of 8.11.

`CCCCCOc1cc(N2C[C@H](C)CN(Cc3ccc(CC(=O)N4CCOCC4)cc3OC)C2=O)ccc1OC` [SC0193] showed a pIC50 of 8.08.

Consider `COc1cc(CC(=O)N(C)C)ccc1CN1CC(C)CN(c2ccc(OC)c(OCCCC3CC3)c2)C1=O` (centres unmarked) [SC0194], for which the pIC50 was 8.07.

The compound `CCCCCOc1cc(N2CC[C@H](C)N(Cc3cccc(OC)c3O)C2=O)ccc1OC` [SC0195] gave a pIC50 of 8.07.

`COc1cc(CCN2CC3(COC3)C2)ccc1CN1C(=O)N(c2ccc(OC)c(OCCCC3CC3)c2)CC[C@@H]1C` [SC0196] gave a pIC50 of 8.07.

For the compound `CCCCCOc1cc(N2CC[C@H](C)N(Cc3ccc(CCO)cc3OC)C2=O)ccc1OC` [SC0197], the pIC50 is 8.04. The pIC50 values of the last two compounds are within 0.2 log units of each other.
